Laboratory results from patent US9884832B2 (priority 2011, dated 2018).

Each molecule was assayed against AM2 S31 (wild-type serine at position 31 in the M2 protein), influenza virus A/Udorn/72 (Influenza A virus, UniProt P0DOF5) (assay: cell-based). Settings: 100 uM; Xenopus oocytes; activity range class; read-out: S31 OOcyte Inhibition at 100 uM (%).
AM2 S31 (wild-type serine at position 31 in the M2 protein), influenza virus A/Udorn/72, sequence (P0DOF5 whole entry, looked up): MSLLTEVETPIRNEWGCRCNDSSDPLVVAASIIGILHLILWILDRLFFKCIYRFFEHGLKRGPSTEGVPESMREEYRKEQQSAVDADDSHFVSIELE
With c1ccc(-c2nc(CNC34CC5CC(CC(C5)C3)C4)cs2)cc1 [Example 132a, N-((2-phenylthiazol-4-yl)methyl)adamantan-1-amine] the inhibition at 100 µM was 0 to 30%.
Work on c1cncc(-c2noc(CNC34CC5CC(CC(C5)C3)C4)n2)c1 [Example 135a, Adamantan-1-yl-(3-pyridin-3-yl-[1,2,4]oxadiazol-5-ylmethyl)-amine] yielded an inhibition at 100 µM of 0 to 30%.
Molecule c1coc(-c2ccc(CNC34CC5CC(CC(C5)C3)C4)s2)c1 [Example 136a, N-((5-(Furan-2-yl)thiophen-2-yl)methyl)adamantan-1-amine] has an inhibition at 100 µM of 0 to 30%.
Molecule c1cc(-c2ccc(CNC34CC5CC(CC(C5)C3)C4)s2)co1 [Example 137a, N-((5-(Furan-3-yl)thiophen-2-yl)methyl)adamantan-1-amine] has an inhibition at 100 µM of 0 to 30%.
c1csc(-c2ccc(CNC34CC5CC(CC(C5)C3)C4)o2)c1 [Example 138a, Adamantan-1-yl-(5-thiophen-2-yl-furan-2-ylmethyl)-amine] gave an inhibition at 100 µM of 0 to 30%.
c1csc(-c2csc(CNC34CC5CC(CC(C5)C3)C4)c2)c1 [Example 140a, Adamantan-1-yl-[2,3′]bithiophenyl-5′-ylmethyl-amine] showed an inhibition at 100 µM of 0 to 30%.
Work on Cc1ccc(-c2ccc(CNC34CC5CC(CC(C5)C3)C4)s2)s1 [Example 141a, N-((5′-methyl-[2,2′-bithiophen]-5-yl)methyl)adamantan-1-amine] yielded an inhibition at 100 µM of 0 to 30%.
Work on c1csc(-c2cc(CNC34CC5CC(CC(C5)C3)C4)no2)c1 [Example 142a, N-((5-(thiophen-2-yl)isoxazol-3-yl)methyl)adamantan-1-amine] yielded an inhibition at 100 µM of 0 to 30%.
c1cc(-c2nc(CNC34CC5CC(CC(C5)C3)C4)no2)cs1 [Example 143a, N-((5-(thiophen-3-yl)-1,2,4-oxadiazol-3-yl)methyl)adamantan-1-amine] showed an inhibition at 100 µM of 0 to 30%.
With c1csc(-c2ncc(CNC34CC5CC(CC(C5)C3)C4)s2)c1 [Example 144a, N-((2-(thiophen-2-yl)thiazol-5-yl)methyl)adamantan-1-amine] the inhibition at 100 µM was 0 to 30%.
With Cc1oc(-c2cccs2)nc1CNC12CC3CC(CC(C3)C1)C2 [Example 145a, N-((5-methyl-2-(thiophen-2-yl)oxazol-4-yl)methyl)adamantan-1-amine] the inhibition at 100 µM was 0 to 30%.
With c1csc(-c2nc(CNC34CC5CC(CC(C5)C3)C4)no2)c1 [Example 146a, N-((5-(thiophen-2-yl)-1,2,4-oxadiazol-3-yl)methyl)adamantan-1-amine] the inhibition at 100 µM was 0 to 30%.
With c1csc(-c2nnc(CNC34CC5CC(CC(C5)C3)C4)o2)c1 [Example 147a, Adamantan-1-yl-(5-thiophen-2-yl-[1,3,4]oxadiazol-2-ylmethyl)-amine] the inhibition at 100 µM was 0 to 30%.
For c1csc(-c2noc(CNC34CC5CC(CC(C5)C3)C4)n2)c1 [Example 148a, N-((3-(thiophen-2-yl)-1,2,4-oxadiazol-5-yl)methyl)adamantan-1-amine], the inhibition at 100 µM was 0 to 30%.
For c1csc(-c2cc(CNC34CC5CC(CC(C5)C3)C4)on2)c1 [Example 149a, N-((3-(thiophen-2-yl)isoxazol-5-yl)methyl)adamantan-1-amine], the inhibition at 100 µM was 0 to 30%.
With c1cc(-c2cc(CNC34CC5CC(CC(C5)C3)C4)no2)cs1 [Example 150a, Adamantan-1-yl-(5-thiophen-3-yl-isoxazol-3-ylmethyl)-amine] the inhibition at 100 µM was 0 to 30%.
c1csc(-c2nnc(CNC34CC5CC(CC(C5)C3)C4)s2)c1 [Example 151a, N-((5-(thiophen-2-yl)-1,3,4-thiadiazol-2-yl)methyl)adamantan-1-amine] was tested, and the inhibition at 100 µM was 0 to 30%.
Molecule c1cc(-c2csc(CNC34CC5CC(CC(C5)C3)C4)c2)cs1 [Example 152a, N-([3,3′-bithiophen]-5-ylmethyl)adamantan-1-amine] has an inhibition at 100 µM of 0 to 30%.
For c1coc(-c2cc(CNC34CC5CC(CC(C5)C3)C4)no2)c1 [Example 153a, N-((5-(furan-2-yl)isoxazol-3-yl)methyl)adamantan-1-amine], the inhibition at 100 µM was 0 to 30%.
